From patent publication US7763669B2, “Low-viscosity, radiation-curable formulation for producing adaptive earpieces” (Dreve-Otoplastik GmbH, priority 2004, dated 2010) come the findings set out here.

A short description of series [1]: Windowpane method for critical energy Ec and laser penetration depth Dp. The series is classed as physicochemical. Particulars: small quantities added to resin formulation; for Influence of inhibitor addition on penetration depth of the laser beam Dp: FIGS. 3 and 5; for Influence of inhibitor addition on critical energy Ec: FIGS. 4 and 6. The protocol:
The influence of the concentration of phenothiazine (PTZ) and 2,2-diphenyl-1-picrylhydrazyl radical (DPPH) in the formulations of Examples 1 and 2 on the penetration depth of the laser beam and the critical energy is illustrated in FIGS. 3 through 6. The laser penetration depth and the critical energy were determined using the windowpane method described by P. F. Jacobs and D. T. Reid in Rapid Prototyping & Manufacturing, Society of Manufacturing Engineers, Dearborn, Mich., 1992, 1st Ed., pp. 263-280. […] This influence of the inhibitors phenothiazine (PTZ) and 2,2-diphenyl-1-picrylhydrazyl radical (DPPH) on the is relevant parameter Ec (critical energy, mJ·cm^−2) and Dp (laser penetration depth, mils) for the stereolithographic resin differs from the influence of the inhibitors, such as p-methoxyphenol, added to the stereolithographic resins corresponding to the prior art (L. E. Levy, J. Polym. Sci., Part A, Polym. Chem. 30 (1992), 569ff). For example, in comparison to p-methoxyphenol the parameters Ec and Dp may be linearly adjusted in a wider range by small concentrations of the inhibitors. This is of great advantage, particularly for the production of such resins and adjustment of the above-described parameters. From a technical production standpoint this may be used to adjust the laser penetration depth that has a direct influence on the accuracy of the production process. For example, performing curing over a value of laser penetration depth that exceeds the desired layer thickness for the process reduces the resolution of the process. High values of the laser penetration depth play an important role in particular for transparent stereolithographic resins that preferably are used for producing otoplastic parts. In the case of stereolithographic resins in the medical field, however, in particular stereolithographic resins for the production of the above-described adaptive earpieces, the accuracy of the production, and thus, the fit, of the molded body is of paramount importance.
(§1) Table 2 lists the parameters for the above-described resins that are relevant for the stereolithographic process. All viscosity measurements were performed at 23° C. using a CVO rheometer from Bohlin Instruments. The flexural strength, modulus of elasticity, and elongation were determined in accordance with EN ISO 178 (1996), using a Zwick 1 test unit from Zwick. For determining the Ec and Dp values using the above-described windowpane method, in each case the average values were determined for 10 windowpane test pieces. The test pieces were produced using a Viper si2 SLA system (3D Systems) equipped with a Nd:YVO4 solid-state laser. The green compacts were post-cured for 2×7 min, using the Fototec PCU stroboscope irradiation unit from Dreve.

Series [2] in a line: Flexural strength, modulus of elasticity and elongation per EN ISO 178 (Zwick 1 test unit) on post-cured test pieces. The series is classed as physicochemical. As for the experimental part: The flexural strength, modulus of elasticity, and elongation were determined in accordance with EN ISO 178 (1996), using a Zwick 1 test unit from Zwick. The test pieces were post-cured for 2×7 min, using the PCU stroboscope irradiation unit from Dreve.
as §1

Setting [3] is: resin formulation from Example 2, inhibitor concentration 0.01 % by wt.
Setting [4] is: resin formulation from Example 2, inhibitor concentration 0.025 % by wt.
Setting [5] is: resin formulation from Example 2, inhibitor concentration 0.05 % by wt.
Setting [6] is: resin formulation from Example 2, inhibitor concentration 0.10 % by wt.
Setting [7] is: resin formulation from Example 2, inhibitor concentration 0.15 % by wt.

In the case of “2,2-diphenyl-1-picrylhydrazyl radical [DPPH]”, in series [1], the “Influence of inhibitor addition on penetration depth of the laser beam Dp” value is “linear decrease” and the “Influence of inhibitor addition on critical energy Ec” value is “sharp, essentially linear increase”. Besides, in series [2] (setting [3]), the Elongation to break came out at 13%, the Flexural strength stood at 61 N · mm^−2 and the Modulus of elasticity is listed as 1452 N · mm^−2. In series [2] (setting [4]), the Elongation to break was found to be 11%, the Flexural strength was determined as 69 N · mm^−2 and the Modulus of elasticity was 1324 N · mm^−2. Further, in series [2] (setting [5]), the Elongation to break is on record as 10%, the Flexural strength worked out at 66 N · mm^−2 and the Modulus of elasticity worked out at 1277 N · mm^−2.

With `c1ccc2c(c1)Nc1ccccc1S2` [Phenothiazine, phenothiazine], in series [1], the “Influence of inhibitor addition on penetration depth of the laser beam Dp” value is reported as “linear decrease” and the “Influence of inhibitor addition on critical energy Ec” value is “sharp, essentially linear increase”. Also, in series [2] (setting [4]), the Elongation to break was 15%, the Flexural strength worked out at 95 N · mm^−2 and the Modulus of elasticity is listed as 1867 N · mm^−2. In series [2] (setting [5]), this compound showed an Elongation to break of 13%, a Flexural strength of 95 N · mm^−2 and a Modulus of elasticity of 1989 N · mm^−2. In series [2] (setting [6]), this compound showed an Elongation to break of 12%, a Flexural strength of 101 N · mm^−2 and a Modulus of elasticity of 2007 N · mm^−2. In series [2] (setting [7]), this compound gave an Elongation to break of 10%, a Flexural strength of 89 N · mm^−2 and a Modulus of elasticity of 1832 N · mm^−2.
